According to PubChem BioAssay (NCI):
Several values for one entry are separate records, joined by “and”; a condition that tells them apart may be missing. Identical values can stand only once.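 Compound exposure: 48 hours, 5 concentrations, 96-well plates. GI50 is the concentration that inhibits growth by half. TGI: concentration producing complete growth inhibition.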

What was measured:
Assay in all cases: growth of human tumour cells (NCI), 48 h
A498 renal = tested on: A498 renal
CAKI-1 renal = tested on: CAKI-1 renal
HOP-92 NSCLC = tested on: HOP-92 NSCLC
NCI-H460 lung = tested on: NCI-H460 lung
PC-3 prostate = tested on: PC-3 prostate
SF-295 CNS = tested on: SF-295 CNS
SK-OV-3 ovarian = tested on: SK-OV-3 ovarian
SN12C renal = tested on: SN12C renal
SNB-19 CNS = tested on: SNB-19 CNS
UACC-62 melanoma = tested on: UACC-62 melanoma

| SMILES | GI50 (A498 renal) [µM] | TGI (A498 renal) | GI50 (CAKI-1 renal) [µM] | TGI (CAKI-1 renal) | GI50 (HOP-92 NSCLC) [µM] | GI50 (NCI-H460 lung) | TGI (NCI-H460 lung) | GI50 (PC-3 prostate) [µM] | TGI (PC-3 prostate) | GI50 (SF-295 CNS) [µM] | TGI (SF-295 CNS) | GI50 (SK-OV-3 ovarian) | TGI (SK-OV-3 ovarian) | GI50 (SN12C renal) [µM] | TGI (SN12C renal) | GI50 (SNB-19 CNS) | TGI (SNB-19 CNS) | GI50 (UACC-62 melanoma) [µM] | TGI (UACC-62 melanoma) | TGI (HOP-92 NSCLC) |
| --- | --- | --- | --- | --- | --- | --- | --- | --- | --- | --- | --- | --- | --- | --- | --- | --- | --- | --- | --- | --- |
| CN(C)C(=O)c1cc2cnc(Nc3ccc(-c4csc5c(=S)cc(N6CCOCC6)oc45)cc3)nc2n1C1CCCC1 | 0.103 | 1.12 µM | 0.368 | > 13.3 µM | 0.115 | 0.585 µM | > 50 µM | 0.312 | > 10.8 µM | 0.672 | > 13.5 µM | 2.28 µM | > 50 µM | 0.33 | > 50 µM | 0.498 µM | > 34.5 µM | 0.234 | 1.72 µM | – |
| COc1cc(-c2ccc3c(c2)NC(=O)/C3=C\c2ccc[nH]2)ccc1O | 2.09 | 39.2 µM | 0.255 | > 12.9 µM | > 24.7 | 0.0194 µM | > 50 µM | 0.0228 | > 50 µM | 0.0479 | > 22.6 µM | 0.0341 µM | > 50 µM | 0.0423 | > 50 µM | 0.0277 µM | > 50 µM | 0.1 | > 50 µM | > 50 µM |
| COc1cc2c(c(OC)c1OC)-c1ccc(OC)c(=O)cc1[C@@H](NC(=O)c1ccccc1)CC2 | < 0.003 | – | 0.029 | 30 µM and 61.2 µM | – | 0.00614 µM and < 0.0126 µM | – | < 0.003 | 30 µM and > 56.5 µM | 0.00623 | – | < 0.003 µM | – | < 0.003 | 30 µM and > 81.5 µM | < 0.003 µM and 0.0157 µM | 30 µM and 46.3 µM | < 0.003 | 30 µM and 59.7 µM | 6.68 µM |
| COC1=CC(=O)c2nc(-c3cccc(C)n3)[nH]c2C1=O | 16.4 | 35.2 µM | 22 | 54.9 µM | 17.4 | 17.1 µM | 35.2 µM | 11.8 | 39.5 µM | 28.4 | 85.2 µM | 19.3 µM | 35.7 µM | 32.9 | > 100 µM | 23.3 µM | 60.6 µM | 30.3 | > 100 µM | 43.7 µM |
| COc1ccc(Nc2c3ccccc3nc3occc23)cc1 | 4.5 | 21.8 µM | 2.93 | > 42 µM | 7.36 | 0.87 µM | 28.1 µM | 3.25 | > 39.5 µM | 0.533 | 8.09 µM | 2.21 µM | 14.9 µM | 2.45 | 23.4 µM | 2.87 µM | > 48.5 µM | 0.342 | – | 31.5 µM |
| Cc1cn(C2CC(N(O)Cc3ccccc3)C(CO[Si](C)(C)C(C)(C)C)O2)c(=O)[nH]c1=O (centres undefined) | – | 48.7 µM and 26.8 µM | – | 76.1 µM and 31.1 µM | – | – | 33.3 µM and 32.2 µM | – | 61.7 µM and 28 µM | – | 39.6 µM and 31 µM | 62 µM and 16.5 µM | > 100 µM and 30.1 µM | – | 30.6 µM and 29.7 µM | – | > 100 µM and 33.2 µM | – | 26 µM and 30 µM | 36.8 µM and 29.6 µM |
| N#CC(NNC(=O)Cc1ccccc1)c1c(O)ccc2ccccc12 (centres undefined) | – | > 72.5 µM | – | 25.8 µM | – | – | > 77.5 µM | – | > 62.9 µM | – | 40.2 µM | – | 31.3 µM | – | 61.3 µM | – | > 64.4 µM | – | 12 µM | 41.3 µM |
| O=C1OC(C(O)CO)C(=O)C1=O (centres undefined) | 2520 | 8510 µM | 3220 | 9630 µM | 2060 | 3540 µM | > 10000 µM | 4410 | > 10000 µM | 7430 | > 10000 µM | 2910 µM | 7200 µM | 2530 | 7090 µM | 8280 µM | > 10000 µM | 4330 | > 10000 µM | 4230 µM |
